Measurements taken from patent US6727252B1, “Methods of modulating serine/threonine protein kinase function with 5-azaquinoxaline-based compounds” (Zentaris AG, priority 1997, dated 2004).
Like-named read-outs stand apart in the source and are kept apart here.

Tests used:
[1] = tested on: 3T3/H-Ras (NIH 3T3 clone 7 cells expressing genomic fragment of oncogenic H-Ras); test: Growth of NIH 3T3 cells over expressing H-Ras (SRB); type: cell-based; conditions: Mus musculus, NIH3T3, 72 h; cell growth, 2% calf serum/DMEM, 3 days with compound
Protocol: The following assay measures growth rates for NIH-3T3 cells expressing RAS. The purpose of the assay is to determine the effects of compounds on the growth of NIH 3T3 cells over expressing H-Ras.
3T3/H-Ras (NIH 3T3 clone 7 cells expressing genomic fragment of oncogenic H-Ras).
2% calf serum/DMEM+2 mM glutamine, Pen/Strep
(§1) 1. Trypsinize cells. Transfer […] of cell suspension to 10 mL of isotone. Count cells with a Coulter Counter.
2. Dilute cells in growth medium to 60,000 cell/mL. Transfer 100 µL of cells to each well in a 96-well flat bottom plate to give 6000 cells/well.
3. Use half of plate (4 rows) for each comound and quadruplicate wells for each comound concentration, and a set of 4 wells for medium control.
(§2) 4. Gently shake plates to allow for uniform attachment of the cells.
(§3) 5. Incubate the plates at 37 C in a 10% CO2 incubator.
1. In a 96-well round bottom plate, add 120 µL of growth medium containing 2×final % DMSO found in highest screening concentration of compound to columns 1 to 11. For example, if the highest concentration is […], and this is made from a 100 mM stock, 1×DMSO is 0.1%, so 2×DMSO is 0.2%. This plate is used to titrate out the compound, 4 rows per compound.
2. In a sterile 15 mL tube, make a 2×solution of the highest screening concentration of compound in growth medium plus 2×DMSO. 1 mL per cell line is needed. The starting concentration of the compound is usually 100 µM but this concentration may vary depending upon the solubility of the compound.
3. Transfer 240 µL of the 2×starting compound solution to qudruplicate wells in column 12 of the 96-well round bottom plate. Do 1:2 serial dilutions across the plate from right to left by transferring […] from column 12 to column 11, column 11 to 10 and so on through column 2. Transfer 100 µL of compound dilutions, and 100 µL of medium in column 1, onto […] medium on cells in corresponding wells of 96-well flat bottom plate. Total volume per well should be […].
4. Return the plate to the incubattor and incubate for 3 days.
(§4) 1. Aspirate or pour off medium. Add […] cold 10% TCA to each well to fix cells. Incubate plate for at least 60 min. at 4 C.
(§5) 2. Discard TCA and rinse wells 5 times with tap water. Dry plates upside down on paper towels.
(§6) 3. Stain cells with 100 µL/well 0.4% SRB for 10 min.
4. Pour of SRB and rinse wells 5 times with 1% acetic acid. Dry plates completely upside down on paper towels.
(§7) 5. Solubilize dye with 100 µL/well 10 mM Tris base for 5-10 min. on shaker.
6. Read plates on Dynatech ELISA Plate REader at 570 nm with reference at 630 nm.

[2] = tested on: A549 human lung carcinoma cells; test: Growth of A549 cells (SRB); type: cell-based; conditions: cell growth
Protocol: The following assay measures growth rates for A549 cells. The purpose of the assay is to determine the effects of compounds on the growth of A549 human lung carcinoma cells. A549 cells are readily accessible from commercial sources, such as ATCC (CCL185). […]
as §1
2. Dilute cells in growth medium to 20,000 cell/mL. Transfer 100 µL of cells to each well in a 96-well flat bottom plate to give 2000 cells/well.
3. Use half of plate (4 rows) for each compound and quadruplicate wells for each compound concentration, and a set of 4 wells for medium control.
as §2, §3
1. In a 96 well-round bottom plate, add 120 µL of growth medium containing 2×final %DMSO found in highest screening concentration of compound to columns 1 to 11. For example, if the highest screening concentration is 100 µM, and this is made from a 100 mM stock, 1×DMSO is 0.1%, so 2×DMSO is 0.2%. This plate is used to titrate out the compound, 4 rows per compound.
2. In a sterile 15 mL tube, make a 2×solution of the highest screening concentration of compound in growth medium plus. 2×DMSO. 1 mL per cell line is needed. The starting concentration of the compound is usually 100 µM but this concentration may vary depending upon the solubility of the compound.
3. Transfer 240 µL of the 2×starting compound solution to quadruplicate wells in column 12 of the 96-well round bottom plate. Do 1:2 serial dilutions across the plate from right to left by transferring […] from column 12 to column 11, column 11 to 10 and so on through column
2. Transfer 100 µL of compound dilutions, and 100 µL of medium in column 1, onto […] medium on cells in corresponding wells of 96-well flat bottom plate. Total volume per well should be 200 L.
4. Return the plate to the incubator and incubate for 3 days.
as §4, §5, §6
4. Pour off SRB and rinse wells 5 times with 1% acetic acid. Dry plates completely upside down on paper towels.
as §7
6. Read plates on Dynatech ELISA Plate Reader at 570 nm with reference at 630 nm.

[3] = 2% FBS, read-out: IC50 (M) A549 (2% FBS)
[4] = growth medium 10% fetal calf serum in Ham's F12-K, read-out: IC50 (M) A549

| SMILES | IC50 [1] | IC50 [2, 3] | IC50 [2, 4] | melting point |
| --- | --- | --- | --- | --- |
| Oc1ccc(-c2cnc3ccc(Nc4ccccc4)nc3n2)cc1 [Compound A-1, 6-Phenylamino-3-(4-hydroxyphenyl)-5-azaquinoxaline] | 1.04 µM |  |  |  |
| Oc1ccc(-c2cnc3ccc(NCc4ccccc4)nc3n2)cc1 [Compound A-2, 6-Benzylamino-3-(4-hydroxyphenyl)-5-Azaquinoxaline] | 7.6 µM | > 1e-05 M | 2.51e-05 M | 271 to 273 °C |
| Fc1ccc(CNc2ccc3nc(-c4ccccc4)c(-c4ccccc4)nc3n2)cc1 [Compound A-6, 2,3-Diphenyl-6-(4-fluorobenzylamino)-5-azaquinoxaline] | 13.5 µM | > 1e-05 M | 2.38e-05 M |  |
| Oc1ccc(-c2cnc3ccc(Nc4ccccc4Cl)nc3n2)cc1 [Compound A-36, 6-(2-Chlorophenylamino)3-(4-hydroxyphenyl)-5-azaquinoxaline] | 0.18 µM |  |  |  |
| Clc1ccccc1Nc1ccc2ncc(-c3ccccc3)nc2n1 [Compound A-77, 6-(2-Chlorophenylamino)-3-phenyl-5-azaquinoxaline] | 0.7 µM |  |  |  |
